Values quoted from earlier work in patent US5681581A, “Controlled release pharmaceutical formulations of 3'-azido-3'-deoxythymidine and methods of use” (priority 1995, dated 1997).
“Also recorded” adds a separate entry of the source.

Legend:
DNA polymerase = conditions: result in words
reverse transcriptase = conditions: result in words
HIV [1] = tested on: HIV
[2] = tested on: cells of HIV infected patients; conditions: HIV infected patients taking AZT
[3] = animals
[4] = capsules and liquid solutions, oral
HIV [5] = conditions: result in words
[6] = intravenous AZT 2.5 mg/kg, patients
bone marrow cells = conditions: than AZT
[7] = result in words

Cc1cn([C@H]2C[C@H](N)[C@@H](COP(=O)(O)OP(=O)(O)OP(=O)(O)O)O2)c(=O)[nH]c1=O [AMT 5'triphosphate]
inhibition of DNA polymerase (DNA polymerase): inhibitor of DNA polymerase | inhibition of reverse transcriptase (reverse transcriptase): inhibitor of HIV reverse transcriptase

Cc1cn([C@H]2C[C@H](N=[N+]=[N-])[C@@H](CO)O2)c(=O)[nH]c1=O [AZT, 3'-azido-3'-deoxythymidine]
effectiveness in asymptomatic sero-positive patients (HIV [1]; 1500 mg per day): not as effective as 500 mg per day | toxicity of dose (HIV [1]; human, in vivo): too toxic | inhibition of reverse transcriptase (reverse transcriptase): inhibitor of reverse transcriptase | relationship between phosphorylated AZT and dosage or blood levels [2]: showed no relationship | AMT levels by oral route [3]: higher levels of AMT | absorption from the gastrointestinal tract [4]: rapidly absorbed

Cc1cn([C@H]2C[C@H](N=[N+]=[N-])[C@@H](COP(=O)(O)OP(=O)(O)OP(=O)(O)O)O2)c(=O)[nH]c1=O [triphosphate form]
inhibitory effect on viral transcription (HIV [5]): most inhibitory effect

Cc1cn([C@H]2C[C@H](N)[C@@H](CO)O2)c(=O)[nH]c1=O [AMT, 3'-amino-3'-deoxythymidine]
AMT level relative to AZT by AUC [6]: about twenty | binding of the reverse transcriptase enzyme (reverse transcriptase): competitive binding | toxicity to bone marrow cells relative to AZT (bone marrow cells): 5-7 times more toxic | antiviral activity (HIV [5]): no antiviral activity; also recorded: poor antiviral activity | effect on the anti-HIV action of AZT (HIV [5]): antagonistic effect | anti-cancer effects [7]: potent anti-cancer effects
